How the values were obtained:
[1] = biological target: T1, NR1a/NR2A recombinant receptors (Homo sapiens, UniProt Q05586); experiment: NMDA-induced currents in oocytes expressing NR1a/NR2A; assay type: cell-based; details: 100 μM NMDA, 50 μM DCUKA, increasing glycine up to 100 μM
T1 construct: expressed in transfected cells; host or cells: Xenopus laevis oocytes, nuclear cDNA injection
Description: (§1) Oocytes were obtained from Xenopus laevis frogs (Nasco or Xenopus I) kept in aquarium tanks at 19–21° C., on a 12 hr light/dark cycle. Mature females were anesthetized by immersion for approximately 30 min in a 0.12% 3-aminobenzoic acid ethyl ester solution, a small incision was made in the abdominal wall and a piece of ovary was removed and placed in Modified Barth's solution (MBS; in mM) containing 88 NaCl, 1 KCl, 10 HEPES, 0.82 MgSO4, 2.4 NaHCO3, 0.91 CaCl2, 0.33 Ca(NO3)2 (pH 7.5). To facilitate manual dissection of oocytes, a section of ovary was transferred from MBS to a hypertonic buffer containing 108 mM NaCl, 2 mM KCl, 2 mM EDTA, 10 mM HEPES, pH 7.5 and theca and epithelial layers of mature oocytes (stages V and VI) were removed with surgical forceps. The follicular layer was removed by a 10 min immersion in 0.5 mg/ml of collagenase in buffer containing 83 mM NaCl, 2 mM KCl, 1 mM MgCl2 and 5 mM HEPES.
(§2) Human NR1a, NR2A and NR2B cDNAs in pCDNA-1Amp were transformed and amplified in XL-1 Blue cells and purified with the MaxPrep Qiagen kit. Oocytes were injected with cDNA into the nucleus in the following concentrations: NR1a/2A cDNAs 0.75 ng/30 nl 1:1 ratio, NR1a/2B cDNAs 3.0 ng/30 nl: 1:1 ratio. Injections were made with micropipettes (10 μm tip diameter) connected to a Drummond micropipettor attached to a micromanipulator. After injection, oocytes were individually placed in wells of 96-well microtiter plates containing incubation medium (MBS supplemented with 10 mg/l streptomycin, 10,000 U/l penicillin G, 50 mg/l gentamicin, 2 mM sodium pyruvate, 0.5 mM theophylline) that had been sterilized by passage through a […]. Oocytes were incubated at 19° C. for 2 to 4 days after injection.
(§3) Oocytes were placed in a rectangular chamber (approximately […]) and perfused (2 ml/min) with frog Ringer (in mM) containing 115 NaCl, 2.5 KCl, 1.8 CaCl2, 10 HEPES (pH 7.2). […] Control responses were always measured before and after addition of the DCUKA. […] Data are expressed as the % inhibition of the agonist response obtained in the absence of the drug.

[2] = biological target: T2, NR1a/NR2A recombinant receptors (Homo sapiens, UniProt Q05586+Q12879); experiment: as above; assay type: cell-based; details: 100 μM NMDA, 1 μM glycine, oocytes; read-out: IC50, inhibition of NMDA-induced currents
T2 construct: expressed in transfected cells; host or cells: Xenopus laevis oocytes, nuclear cDNA injection
Description: as §1, §2, §3

[3] = biological target: T3, RSM (μl) sodium channels (Rattus norvegicus, UniProt P15390); experiment: Sodium currents, whole cell patch clamp in CHO cells; assay type: cell-based; details: held at −100 mV, successive depolarizations
T3 construct: expressed in transfected cells
Description: Chinese hamster ovary (CHO) cells stably expressing RSM (μl) sodium channels were studied using the patch clamp whole cell recording technique. CHO cells were grown to confluence in Dulbecco's Modified Eagle's Medium fortified with 15% FBS, 100 U/ml penicillin and 100 μg/ml streptomycin in a humidified incubator at 37° C. and 5% CO2, with medium changed every 2–3 days. Transfections with the plasmid pZemμ1–2 were performed using the calcium phosphate coprecipitation method. After 24 hr of incubation with DNA, standard culturing conditions were resumed. After 3 days, stably transfected cells were selected with 400 μg/ml geneticin. Transfected cells were grown to confluence and then plated on 35 mm culture dishes for 24–96 hr before the experiment.
An 8900 Dagan patch clamp amplifier with a 1 GΩ 8920 Dagan headstage was used in combination with a Nikon Diaphot inverted microscope. Micromanipulators were used to place the electrode onto the cell. Electrodes were pulled to a resistance of […]. […] Peak currents were determined from these traces. DCUKA dissolved in 0.4% DMSO was added directly to the bath following seal formation and the data are expressed as the % of the initial peak current response obtained before drug addition. […]

[4] = system: audiogenic seizures in DBA/2J mice; experiment: Audiogenic seizures; assay type: in vivo; details: 100 or 500 mg/kg, about 90 minutes before stimulus
Description: Male DBA/2J mice (20–22 days old; 8–12 g) were used to evaluate the effects of DCUK-OMe in an animal model of partial seizures. A description of this test for audiogenic seizures can be found in Engstrom, F. L., et al., “SEIZURE SUSCEPTIBILITY IN DBA AND C57 MICE: THE EFFECTS OF VARIOUS CONVULSANTS,” Epilepsia., 29 389–395 (1988), the relevant disclosures of which are incorporated herein by reference. Mice were injected with either vehicle (5% Tween-80, 20% Intralipid) or 100 mg/kg or 500 mg/kg DCUK-OMe suspended in the vehicle about 90 minutes before being placed into a testing chamber having a size of about 6 inches (about 15.2 cm) diameter×about 20 inches (about 50.8 cm) height enclosed in a sound-attenuated box. After a 15–20 second habituation period, a high-intensity auditory stimulus (ringing doorbell, 12–16 kHz, 109 db) was activated for 30 seconds or until tonic hindlimb extension occurred. The seizure response in these mice was characterized by a progression of a wild running behavior, followed by loss of righting and clonus of the forelimbs, followed by tonic hindlimb extension, and finally respiratory arrest. The number of mice showing each response was recorded. […] Data were analyzed by the Fisher Exact Test. In FIG. 8, * denotes P<0.05 compared to vehicle injected mice.

T3 sequence (P15390 whole entry): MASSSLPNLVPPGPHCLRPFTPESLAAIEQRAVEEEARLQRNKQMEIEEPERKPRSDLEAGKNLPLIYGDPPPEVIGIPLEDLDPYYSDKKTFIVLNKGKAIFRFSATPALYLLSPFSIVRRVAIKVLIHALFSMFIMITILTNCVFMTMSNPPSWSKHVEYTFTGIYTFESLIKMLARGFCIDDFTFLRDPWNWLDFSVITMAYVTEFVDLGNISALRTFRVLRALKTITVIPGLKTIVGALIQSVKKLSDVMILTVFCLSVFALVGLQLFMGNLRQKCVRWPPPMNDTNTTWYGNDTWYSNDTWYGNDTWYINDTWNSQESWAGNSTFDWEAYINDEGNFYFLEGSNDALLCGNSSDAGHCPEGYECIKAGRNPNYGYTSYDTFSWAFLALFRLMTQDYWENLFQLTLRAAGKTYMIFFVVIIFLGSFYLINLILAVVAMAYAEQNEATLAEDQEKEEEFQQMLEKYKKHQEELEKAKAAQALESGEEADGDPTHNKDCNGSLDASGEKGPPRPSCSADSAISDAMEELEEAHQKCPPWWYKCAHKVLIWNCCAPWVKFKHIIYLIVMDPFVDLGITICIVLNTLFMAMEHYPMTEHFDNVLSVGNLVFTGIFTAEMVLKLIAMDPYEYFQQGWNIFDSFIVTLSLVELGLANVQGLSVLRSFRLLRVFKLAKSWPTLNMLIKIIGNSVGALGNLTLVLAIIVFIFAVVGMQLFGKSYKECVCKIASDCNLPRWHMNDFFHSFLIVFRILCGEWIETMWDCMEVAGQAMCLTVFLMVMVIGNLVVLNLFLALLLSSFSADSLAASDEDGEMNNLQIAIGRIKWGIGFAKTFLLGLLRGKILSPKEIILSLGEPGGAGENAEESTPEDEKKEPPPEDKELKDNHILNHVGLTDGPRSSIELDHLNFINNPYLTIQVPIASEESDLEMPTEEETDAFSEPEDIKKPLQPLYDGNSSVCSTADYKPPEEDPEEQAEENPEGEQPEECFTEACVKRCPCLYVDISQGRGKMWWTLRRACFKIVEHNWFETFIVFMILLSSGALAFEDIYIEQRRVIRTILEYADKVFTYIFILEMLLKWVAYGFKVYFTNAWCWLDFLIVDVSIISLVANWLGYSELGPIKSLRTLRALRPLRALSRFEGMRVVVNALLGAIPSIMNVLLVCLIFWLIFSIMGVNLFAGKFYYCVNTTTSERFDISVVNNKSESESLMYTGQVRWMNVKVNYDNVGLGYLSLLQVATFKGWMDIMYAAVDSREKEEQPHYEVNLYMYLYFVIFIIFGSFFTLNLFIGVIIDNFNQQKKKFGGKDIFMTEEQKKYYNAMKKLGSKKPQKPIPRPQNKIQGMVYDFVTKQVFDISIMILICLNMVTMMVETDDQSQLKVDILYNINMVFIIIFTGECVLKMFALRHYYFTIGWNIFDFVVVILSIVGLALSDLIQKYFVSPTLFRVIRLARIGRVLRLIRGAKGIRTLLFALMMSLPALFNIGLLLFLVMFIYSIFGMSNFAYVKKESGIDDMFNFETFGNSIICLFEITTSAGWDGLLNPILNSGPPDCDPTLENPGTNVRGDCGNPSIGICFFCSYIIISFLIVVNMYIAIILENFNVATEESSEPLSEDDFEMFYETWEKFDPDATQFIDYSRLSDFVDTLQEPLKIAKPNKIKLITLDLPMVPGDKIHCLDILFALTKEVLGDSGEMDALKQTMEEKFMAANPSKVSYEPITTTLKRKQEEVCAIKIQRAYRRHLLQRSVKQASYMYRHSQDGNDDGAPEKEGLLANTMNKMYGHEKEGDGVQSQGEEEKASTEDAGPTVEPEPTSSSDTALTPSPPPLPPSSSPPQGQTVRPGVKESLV

IC50 [2]	SMILES	reversal by glycine of inhibition of NMDA-induced currents [1]	effect on sodium current through VSNaCs [3]	frequency of clonic audiogenic seizures [4]
12.8 µM	O=C(O)c1cc(NC(=O)N(c2ccccc2)c2ccccc2)c2c(Cl)cc(Cl)cc2n1 [DCUKA, (N,N-diphenyl)-4-ureido-5,7-dichloro-2-carboxy-quinoline]	could not be overcome by glycine, even at a 100 μM concentration	use- and voltage-dependent inhibitor of VSNaCs	
	COC(=O)c1cc(NC(=O)N(c2ccccc2)c2ccccc2)c2c(Cl)cc(Cl)cc2n1 [DCUK-OMe, (N,N-diphenyl)-4-ureido-5,7-dichloro-2-carboxy-quinoline methyl ester]			suppression of audiogenic seizures

— US6962930B1, “Compounds, compositions and method suitable for amelioration of withdrawal syndromes and withdrawal-induced brain damage” (Lohocla Research Corporation, priority 1997, dated 2005)
